Laboratory results published in patent publication US12545639B2, “3-substituted phenylamidine compounds, preparation and use thereof” (PI INDUSTRIES LTD., priority 2019, dated 2026).

Experiments:
Botrytis cinerea = Botrytis cinerea (gray mold) in vitro test, radial growth on potato dextrose agar; type: cell-based; details: 168 h, 300 ppm in potato dextrose agar, 22° C., 90% relative humidity, seven days, read-out: control compared to the untreated check (radial growth)
Alternaria solani = Alternaria solani (early blight of tomato/potato) in vitro test, radial growth on potato dextrose agar; type: cell-based; details: 168 h, 300 ppm in potato dextrose agar, 25° C., 60% relative humidity, seven days, read-out: control compared to the untreated check (radial growth)
Pyricularia oryzae = assay: microbe, parasite or virus in culture; type: cell-based; details: 168 h, read-out: control compared to the untreated check (radial growth)
Rhizoctonia solani = Rhizoctonia solani (rice sheath blight/potato black scurf) in vitro test, radial growth on potato dextrose agar; type: cell-based; details: 168 h, 300 ppm in potato dextrose agar, 25° C., 60% relative humidity, seven days, read-out: control compared to the untreated check (radial growth)
Phakopsora pachyrhizi = Phakopsora pachyrhizi test in soybean, preventive, in vivo on plants; details: in Glycine max, read-out: Efficacy (% control), disease severity compared to the untreated check

CCN(C)C=Nc1cc(C)cc(N(C)c2cccc(C(C)C)c2)c1Cl [Compound 63, N′-(2-chloro-3-((3-isopropylphenyl)(methyl)amino)-5-methylphenyl)-N-ethyl-N-methylformimidamide]
≥ 70%: inhibition of growth at 300 ppm (Botrytis cinerea) | inhibition of growth at 300 ppm (Alternaria solani)

CCN(C)C=Nc1cc(C)cc(Cc2cccc(OC)c2)c1Cl [Compound 28, N′-(2-chloro-3-(3-methoxybenzyl)-5-methylphenyl)-N-ethyl-N-methylformimidamide]
≥ 70%: inhibition of growth at 300 ppm (Pyricularia oryzae) | inhibition of growth at 300 ppm (Rhizoctonia solani) | inhibition of growth at 300 ppm (Alternaria solani) | pest or weed control at 500 ppm (Phakopsora pachyrhizi)

CCN(C)C=Nc1cc(F)cc(Nc2ccccc2)c1C [Compound 8, N-ethyl-N′-(5-fluoro-2-methyl-3-(phenylamino)phenyl)-N-methylformimidamide]
≥ 70%: inhibition of growth at 300 ppm (Pyricularia oryzae) | inhibition of growth at 300 ppm (Botrytis cinerea) | inhibition of growth at 300 ppm (Alternaria solani)

CCN(C)C=Nc1cc(F)cc(Cc2ccc(Br)cc2)c1C [Compound 175, N′-(3-(4-bromobenzyl)-5-fluoro-2-methylphenyl)-N-ethyl-N-methylformimidamide]
≥ 70%: inhibition of growth at 300 ppm (Pyricularia oryzae) | inhibition of growth at 300 ppm (Rhizoctonia solani) | inhibition of growth at 300 ppm (Botrytis cinerea) | inhibition of growth at 300 ppm (Alternaria solani)

CCN(C)C=Nc1cc(C)cc(N(C)c2ccc(F)cc2)c1Cl [Compound 69, N′-(2-chloro-3-((4-fluorophenyl)(methyl)amino)-5-methylphenyl)-N-ethyl-N-methylformimidamide]
≥ 70%: inhibition of growth at 300 ppm (Pyricularia oryzae) | inhibition of growth at 300 ppm (Rhizoctonia solani) | inhibition of growth at 300 ppm (Alternaria solani) | pest or weed control at 500 ppm (Phakopsora pachyrhizi)

CCc1cccc(N(C)c2cc(Cl)cc(N=CN(C)CC)c2C)n1 [Compound 253, N′-(5-chloro-3-((6-ethylpyridin-2-yl)(methyl)amino)-2-methylphenyl)-N-ethyl-N-methylformimidamide]
≥ 70%: inhibition of growth at 300 ppm (Pyricularia oryzae) | inhibition of growth at 300 ppm (Rhizoctonia solani) | inhibition of growth at 300 ppm (Alternaria solani) | pest or weed control at 500 ppm (Phakopsora pachyrhizi)

CCN(C)C=Nc1cc(C#N)cc(Cc2ccc(F)cc2)c1C [Compound 310, N′-(5-cyano-3-(4-fluorobenzyl)-2-methylphenyl)-N-ethyl-N-methylformimidamide]
≥ 70%: inhibition of growth at 300 ppm (Pyricularia oryzae) | inhibition of growth at 300 ppm (Botrytis cinerea) | inhibition of growth at 300 ppm (Alternaria solani)

CCN(C)C=Nc1cc(F)cc(Cc2cccc(OC(F)(F)F)c2)c1C [Compound 173, N-ethyl-N′-(5-fluoro-2-methyl-3-(3-(trifluoromethoxy)benzyl)phenyl)-N-methylformimidamide]
≥ 70%: inhibition of growth at 300 ppm (Pyricularia oryzae) | inhibition of growth at 300 ppm (Rhizoctonia solani) | inhibition of growth at 300 ppm (Botrytis cinerea) | inhibition of growth at 300 ppm (Alternaria solani)

CCN(C)C=Nc1cc(F)cc(N(C)c2ccc(F)c(F)c2)c1C [Compound 83, N′-(3-((3,4-difluorophenyl)(methyl)amino)-5-fluoro-2-methylphenyl)-N-ethyl-N-methylformimidamide]
≥ 70%: inhibition of growth at 300 ppm (Pyricularia oryzae) | inhibition of growth at 300 ppm (Rhizoctonia solani) | inhibition of growth at 300 ppm (Botrytis cinerea) | inhibition of growth at 300 ppm (Alternaria solani)

CCN(C)C=Nc1cc(F)cc(Cc2cccc(C#N)c2)c1C [Compound 174, N′-(3-(3-cyanobenzyl)-5-fluoro-2-methylphenyl)-N-ethyl-N-methylformimidamide]
≥ 70%: inhibition of growth at 300 ppm (Pyricularia oryzae) | inhibition of growth at 300 ppm (Rhizoctonia solani) | inhibition of growth at 300 ppm (Botrytis cinerea) | inhibition of growth at 300 ppm (Alternaria solani)

CCN(C)C=Nc1cc(C#N)cc(Cc2ccc(Cl)cc2)c1C [Compound 311, N′-(3-(4-chlorobenzyl)-5-cyano-2-methylphenyl)-N-ethyl-N-methylformimidamide]
≥ 70%: inhibition of growth at 300 ppm (Pyricularia oryzae) | inhibition of growth at 300 ppm (Rhizoctonia solani) | inhibition of growth at 300 ppm (Botrytis cinerea)

CCN(C)C=Nc1cc(F)cc(Nc2cccc(C)c2F)c1C [Compound 122, N-ethyl-N′-(5-fluoro-3-((2-fluoro-3-methylphenyl)amino)-2-methylphenyl)-N-methylformimidamide]
≥ 70%: inhibition of growth at 300 ppm (Pyricularia oryzae) | inhibition of growth at 300 ppm (Botrytis cinerea) | pest or weed control at 500 ppm (Phakopsora pachyrhizi)

CCN(C)C=Nc1cc(F)cc(Cc2ccc(F)c(C(F)(F)F)c2)c1C [Compound 234, N-ethyl-N′-(5-fluoro-3-(4-fluoro-3-(trifluoromethyl)benzyl)-2-methylphenyl)-N-methylformimidamide]
≥ 70%: inhibition of growth at 300 ppm (Pyricularia oryzae) | inhibition of growth at 300 ppm (Rhizoctonia solani) | inhibition of growth at 300 ppm (Alternaria solani) | pest or weed control at 500 ppm (Phakopsora pachyrhizi)

CCN(C)C=Nc1cc(F)cc(Cc2ccccc2OC(F)(F)F)c1C [Compound 170, N-ethyl-N′-(5-fluoro-2-methyl-3-(2-(trifluoromethoxy)benzyl)phenyl)-N-methylformimidamide]
≥ 70%: inhibition of growth at 300 ppm (Pyricularia oryzae) | inhibition of growth at 300 ppm (Rhizoctonia solani) | inhibition of growth at 300 ppm (Botrytis cinerea) | inhibition of growth at 300 ppm (Alternaria solani)

CCN(C)C=Nc1cc(C)cc(N(C)c2ccc(F)c(OC)c2)c1Cl [Compound 288, N′-(2-chloro-3-((4-fluoro-3-methoxyphenyl)(methyl)amino)-5-methylphenyl)-N-ethyl-N-methylformimidamide]
≥ 70%: inhibition of growth at 300 ppm (Pyricularia oryzae) | inhibition of growth at 300 ppm (Botrytis cinerea) | inhibition of growth at 300 ppm (Alternaria solani)

CCN(C)C=Nc1cc(Cl)cc(Cc2ccccc2OC(F)(F)F)c1C [Compound 247, N′-(5-chloro-2-methyl-3-(2-(trifluoromethoxy)benzyl)phenyl)-N-ethyl-N-methylformimidamide]
≥ 70%: inhibition of growth at 300 ppm (Pyricularia oryzae) | inhibition of growth at 300 ppm (Rhizoctonia solani) | inhibition of growth at 300 ppm (Botrytis cinerea) | inhibition of growth at 300 ppm (Alternaria solani)

CCN(C)C=Nc1cc(Cl)cc(Nc2ccc3ncsc3c2)c1C [Compound 242, N′-(3-(benzo[d]thiazol-6-ylamino)-5-chloro-2-methylphenyl)-N-ethyl-N-methylformimidamide]
≥ 70%: inhibition of growth at 300 ppm (Pyricularia oryzae) | inhibition of growth at 300 ppm (Rhizoctonia solani) | inhibition of growth at 300 ppm (Alternaria solani) | pest or weed control at 500 ppm (Phakopsora pachyrhizi)

CCN(C)C=Nc1cc(C)cc(Cc2ccc(F)c(C(F)(F)F)c2)c1Cl [Compound 218, N′-(2-chloro-3-(4-fluoro-3-(trifluoromethyl)benzyl)-5-methylphenyl)-N-ethyl-N-methylformimidamide]
≥ 70%: inhibition of growth at 300 ppm (Pyricularia oryzae) | inhibition of growth at 300 ppm (Rhizoctonia solani) | inhibition of growth at 300 ppm (Alternaria solani) | pest or weed control at 500 ppm (Phakopsora pachyrhizi)

CCN(C)C=Nc1cc(Cl)cc(Cc2cccc(C(F)(F)F)c2)c1C [Compound 127, N′-(5-chloro-2-methyl-3-(3-(trifluoromethyl)benzyl)phenyl)-N-ethyl-N-methylformimidamide]
≥ 70%: inhibition of growth at 300 ppm (Pyricularia oryzae) | inhibition of growth at 300 ppm (Rhizoctonia solani) | inhibition of growth at 300 ppm (Alternaria solani) | pest or weed control at 500 ppm (Phakopsora pachyrhizi)

CCN(C)C=Nc1cc(F)cc(N(C)c2cc(F)cc(Cl)c2)c1C [Compound 106, N′-(3-((3-chloro-5-fluorophenyl)(methyl)amino)-5-fluoro-2-methylphenyl)-N-ethyl-N-methylformimidamide]
≥ 70%: inhibition of growth at 300 ppm (Botrytis cinerea) | inhibition of growth at 300 ppm (Alternaria solani)

CCN(C)C=Nc1cc(C)cc(N(C)c2ccc(F)c(F)c2)c1Cl [Compound 81, N′-(2-chloro-3-((3,4-difluorophenyl)(methyl)amino)-5-methylphenyl)-N-ethyl-N-methylformimidamide]
≥ 70%: inhibition of growth at 300 ppm (Botrytis cinerea) | inhibition of growth at 300 ppm (Alternaria solani) | pest or weed control at 500 ppm (Phakopsora pachyrhizi)

CCN(C)C=Nc1cc(F)cc(Cc2ccc(OC(F)(F)F)cc2)c1C [Compound 176, N-ethyl-N′-(5-fluoro-2-methyl-3-(4-(trifluoromethoxy)benzyl)phenyl)-N-methylformimidamide]
≥ 70%: inhibition of growth at 300 ppm (Pyricularia oryzae) | inhibition of growth at 300 ppm (Rhizoctonia solani) | inhibition of growth at 300 ppm (Botrytis cinerea) | inhibition of growth at 300 ppm (Alternaria solani)

CCN(C)C=Nc1cc(C)cc(N(C)c2cc(Cl)ccc2C)c1Cl [Compound 110, N′-(2-chloro-3-((5-chloro-2-methylphenyl)(methyl)amino)-5-methylphenyl)-N-ethyl-N-methylformimidamide]
≥ 70%: inhibition of growth at 300 ppm (Botrytis cinerea) | inhibition of growth at 300 ppm (Alternaria solani)

CCN(C)C=Nc1cc(Cl)cc(Cc2ccccc2C#N)c1C [Compound 104, N′-(5-chloro-3-(2-cyanobenzyl)-2-methylphenyl)-N-ethyl-N-methylformimidamide]
≥ 70%: inhibition of growth at 300 ppm (Pyricularia oryzae) | inhibition of growth at 300 ppm (Rhizoctonia solani) | inhibition of growth at 300 ppm (Alternaria solani) | pest or weed control at 500 ppm (Phakopsora pachyrhizi)
